A value given as a limit tells only on which side of the number the result lay.

For one experiment, the target named is T1, recombinant human PDE-IV (HSPDE4A) [組み換えヒトPDE−IV (HSPDE4A)] (Homo sapiens, UniProt P27815).
T1 construct: made in house; host or cells: Sf9 insect cells
T1 sequence (P27815 whole entry): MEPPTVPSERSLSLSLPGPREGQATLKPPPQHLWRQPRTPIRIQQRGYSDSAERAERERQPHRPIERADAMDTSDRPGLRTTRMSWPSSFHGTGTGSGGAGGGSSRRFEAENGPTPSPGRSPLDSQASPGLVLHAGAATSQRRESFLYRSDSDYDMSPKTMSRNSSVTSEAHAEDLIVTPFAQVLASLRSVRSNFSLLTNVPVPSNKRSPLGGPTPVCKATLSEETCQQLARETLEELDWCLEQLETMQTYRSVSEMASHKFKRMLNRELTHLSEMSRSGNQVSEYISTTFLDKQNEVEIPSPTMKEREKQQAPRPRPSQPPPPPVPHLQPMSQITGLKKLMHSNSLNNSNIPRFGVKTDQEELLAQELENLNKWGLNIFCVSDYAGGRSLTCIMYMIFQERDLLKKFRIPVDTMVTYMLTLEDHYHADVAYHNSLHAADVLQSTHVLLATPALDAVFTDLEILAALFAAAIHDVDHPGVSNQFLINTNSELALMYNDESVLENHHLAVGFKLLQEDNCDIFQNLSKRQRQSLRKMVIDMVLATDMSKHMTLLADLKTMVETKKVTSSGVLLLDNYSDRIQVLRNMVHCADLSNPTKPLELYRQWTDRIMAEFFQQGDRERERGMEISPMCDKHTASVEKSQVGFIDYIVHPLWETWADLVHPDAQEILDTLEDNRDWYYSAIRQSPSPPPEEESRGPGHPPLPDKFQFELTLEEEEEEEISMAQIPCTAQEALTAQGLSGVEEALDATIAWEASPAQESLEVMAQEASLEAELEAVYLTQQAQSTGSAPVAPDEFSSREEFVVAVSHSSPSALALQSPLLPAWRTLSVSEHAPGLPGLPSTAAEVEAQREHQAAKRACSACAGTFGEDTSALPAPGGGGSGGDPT
Description: Recombinant human PDE-IV enzyme inhibition test. The note with it: drug concentration 1 μmol/L; [3H]cAMP 1 μmol/L; 30 °C, 10-30 min; DMSO 1.7%; read-out: enzyme inhibitory activity. The class given is biochemical.
As to `COc1ccc(C2(C#N)CCN(CC(=O)O)CC2)c2cc(C(C)=O)oc12` [化合物90, 2−(4−(2−アセチル−7−メトキシベンゾフラン−4−イル)−4−シアノピペリジン−1−イル)酢酸], the inhibition was at least 50%.
As for `CCc1ccc([C@]2(C#N)CC[C@@H](C(=O)O)CC2)c2oc(C(=O)c3ccccc3)cc12` [化合物127, シス−4−(2−ベンゾイル−4−エチルベンゾフラン−7−イル)−4−シアノシクロヘキサンカルボン酸], the inhibition was at least 50%.
The same measure, in the same setting: in the case of `COc1ccc([C@]2(C#N)CC[C@@H](C(=O)O)CC2)c2cc(C#N)oc12` [化合物121, シス−4−シアノ−4−(2−シアノ−7−メトキシベンゾフラン−4−イル)シクロヘキサンカルボン酸] it was at least 50%; in that of `COc1ccc([C@]2(C#N)CC[C@@H](C(=O)O)CC2)c2cc(C(=O)c3ccccc3)oc12` [化合物111, シス−4−(2−ベンゾイル−7−メトキシベンゾフラン−4−イル)−4−シアノシクロヘキサンカルボン酸], at least 50%; in that of `CC1(c2cc3c(o2)c(OC(F)F)ccc3[C@]2(C#N)CC[C@@H](C(=O)O)CC2)CC1` [化合物107, シス−4−シアノ−4−(7−ジフルオロメトキシ−2−(1−メチルシクロプロピル)ベンゾフラン−4−イル)シクロヘキサンカルボン酸], at least 50%.
Regarding `COc1ccc([C@]2(C#N)CC[C@@H](C(=O)O)CC2)c2cc(C(=O)c3ccncc3)oc12` [化合物112, シス−4−シアノ−4−(2−イソニコチノイル−7−メトキシベンゾフラン−4−イル)シクロヘキサンカルボン酸], the inhibition is at least 50%.
Take `COc1ccc([C@]2(C#N)CC[C@@H](C(=O)O)CC2)c2cc(C3(C(F)(F)F)CC3)oc12` [化合物104, シス−4−シアノ−4−(7−メトキシ−2−(1−トリフルオロメチルシクロプロピル)ベンゾフラン−4−イル)シクロヘキサンカルボン酸]: the inhibition is at least 50%.
The same measure, in the same setting: for `COc1ccc([C@]2(C#N)CC[C@@H](C(=O)O)CC2)c2cc(C(=O)c3cc[n+]([O-])cc3)oc12` [化合物113, シス−4−シアノ−4−(2−(イソニコチノイル−1−オキシド)−7−メトキシベンゾフラン−4−イル)シクロヘキサンカルボン酸, 0.2H2O] the value was at least 50%; for `N#C[C@]1(c2ccc(OC(F)F)c3oc(C4CC4)cc32)CC[C@H](C(=O)O)CC1` [化合物106, シス−4−シアノ−4−(2−シクロプロピル−7−ジフルオロメトキシベンゾフラン−4−イル)シクロヘキサンカルボン酸, 0.2H2O], at least 50%; for `CCc1ccc([C@]2(C#N)CC[C@@H](C(=O)O)CC2)c2cc(C(=O)c3ccccc3)oc12` [化合物123, シス−4−(2−ベンゾイル−7−エチルベンゾフラン−4−イル)−4−シアノシクロヘキサンカルボン酸], at least 50%.
On the same count and under the same terms, in the case of `COc1ccc([C@]2(C#N)CC[C@@H](C(=O)O)CC2)c2cc(C(C)O)oc12` (some centres unmarked) [化合物108, シス−4−シアノ−4−(2−(1−ヒドロキシエチル)−7−メトキシベンゾフラン−4−イル)シクロヘキサンカルボン酸] it was at least 50%; in that of `COc1ccc([C@]2(C#N)CC[C@@H](C(=O)O)CC2)c2cc(C(C)(C)O)oc12` [化合物110, シス−4−シアノ−4−(2−(1−ヒドロキシ−1−メチルエチル)−7−メトキシベンゾフラン−4−イル)シクロヘキサンカルボン酸], at least 50%.
Still for that read-out and setting: for `COc1ccc([C@]2(C#N)CC[C@@H](C(=O)O)CC2)c2cc(C3(C)CC3)oc12` [化合物103, シス−4−シアノ−4−(7−メトキシ−2−(1−メチルシクロプロピル)ベンゾフラン−4−イル)シクロヘキサンカルボン酸] the value was at least 50%; for `COc1ccc([C@]2(C#N)CC[C@@H](C(=O)O)CC2)c2cc(C(=O)N3CCN(CCO)CC3)oc12` [化合物115, シス−4−シアノ−4−(2−(4−(2−ヒドロキシエチル)ピペラジン−1−イルカルボニル)−7−メトキシベンゾフラン−4−イル)シクロヘキサンカルボン酸 塩酸塩], at least 50%; for `COc1ccc([C@]2(C#N)CC[C@@H](C(=O)O)CC2)c2cc(C(=O)N3CCN(C)CC3)oc12` [化合物114, シス−4−シアノ−4−(7−メトキシ−2−(4−メチルピペラジン−1−イルカルボニル)ベンゾフラン−4−イル)シクロヘキサンカルボン酸 塩酸塩], at least 50%.
`COc1ccc([C@]2(C#N)CC[C@@H](C(=O)O)CC2)c2cc(C(C)=O)oc12` [化合物109, シス−4−(2−アセチル−7−メトキシベンゾフラン−4−イル)−4−シアノシクロヘキサンカルボン酸]: the inhibition was at least 50%.
On the same count and under the same terms, for `COC(=O)c1cc2c(C3(C#N)CCN(CC(=O)O)CC3)ccc(OC)c2o1` [化合物93, 2−(4−シアノ−4−(7−メトキシ−2−メトキシカルボニルベンゾフラン−4−イル)ピペリジン−1−イル)酢酸] the value was at least 50%; for `COc1ccc([C@]2(C#N)CC[C@@H](C(=O)O)CC2)c2oc(C(=O)c3ccccc3)cc12` [化合物124, シス−4−(2−ベンゾイル−4−メトキシベンゾフラン−7−イル)−4−シアノシクロヘキサンカルボン酸], at least 50%.
Take `COc1ccc(C2(C#N)CCN(CC(=O)O)CC2)c2cc(C(=O)C(C)C)oc12` [化合物91, 2−(4−シアノ−4−(2−イソブチリル−7−メトキシベンゾフラン−4−イル)ピペリジン−1−イル)酢酸]: the inhibition was at least 50%.
For `COc1ccc(C2(C#N)CCN(CC(=O)O)CC2)c2cc(C(=O)c3ccccc3)oc12` [化合物92, 2−(4−(2−ベンゾイル−7−メトキシベンゾフラン−4−イル)−4−シアノピペリジン−1−イル)酢酸], the inhibition was at least 50%.
For the compound `COc1ccc([C@]2(C#N)CC[C@@H](C(=O)O)CC2)c2cc(C(=O)N3CCC(N4CCCC4)CC3)oc12` [化合物116, シス−4−シアノ−4−(7−メトキシ−2−(4−(ピロリジン−1−イル)ピペリジノカルボニル)ベンゾフラン−4−イル)シクロヘキサンカルボン酸 塩酸塩], the inhibition was at least 50%.
Regarding `C=Cc1ccc([C@]2(C#N)CC[C@@H](C(=O)O)CC2)c2oc(C(=O)c3ccccc3)cc12` [化合物126, シス−4−(2−ベンゾイル−4−ビニルベンゾフラン−7−イル)−4−シアノシクロヘキサンカルボン酸], the inhibition is at least 50%.
Same read-out and setting: in the case of `CCc1cc2c(C3(C#N)CCN(CC(=O)O)CC3)ccc(OC)c2o1` [化合物76, 2−(4−シアノ−4−(2−エチル−7−メトキシベンゾフラン−4−イル)ピペリジン−1−イル)酢酸, 0.3H2O] it was at least 50%; in that of `CCc1cc2c(o1)c(OC)ccc2[C@]1(C#N)CC[C@@H](C(=O)O)CC1` [化合物101, シス−4−シアノ−4−(2−エチル−7−メトキシベンゾフラン−4−イル)シクロヘキサンカルボン酸], at least 50%.
Take `C=Cc1ccc([C@]2(C#N)CC[C@@H](C(=O)O)CC2)c2cc(C(=O)c3ccccc3)oc12` [化合物122, シス−4−(2−ベンゾイル−7−ビニルベンゾフラン−4−イル)−4−シアノシクロヘキサンカルボン酸, 0.4H2O]: the inhibition is at least 50%.
Same read-out and setting: in the case of `COc1ccc(C2(C#N)CCN(CC(=O)O)CC2)c2cc(C#N)oc12` [化合物99, 2−(4−シアノ−4−(2−シアノ−7−メトキシベンゾフラン−4−イル)ピペリジン−1−イル)酢酸] it was at least 50%.

The experiment is the same for the next values; noted with them: read-out: enzyme inhibitory activity.
Regarding `COc1ccc(C2(C#N)CCN(CC(=O)O)CC2)c2cc(Cc3ccccc3)oc12` [化合物81, 2−(4−(2−ベンジル−7−メトキシベンゾフラン−4−イル)−4−シアノピペリジン−1−イル)酢酸 塩酸塩], the inhibition at 1 µM is at least 50%.
With `COc1ccc(C2(C#N)CCN(CC(=O)O)CC2)c2cc(C3CC3)oc12` [化合物83, 2−(4−シアノ−4−(2−シクロプロピル−7−メトキシベンゾフラン−4−イル)ピペリジン−1−イル)酢酸 塩酸塩], the inhibition at 1 µM is at least 50%.
The same measure, in the same setting: for `COc1ccc(C2(C#N)CCN(CC(=O)O)CC2)c2c3c(oc12)CCCC3` [化合物100, 2−(4−シアノ−4−(6−メトキシ−1,2,3,4−テトラヒドロジベンゾフラン−9−イル)ピペリジン−1−イル)酢酸 塩酸塩] the value was at least 50%; for `COc1ccc(C2(C#N)CCN(CC(=O)O)CC2)c2cc(CC(C)C)oc12` [化合物79, 2−(4−シアノ−4−(2−イソブチル−7−メトキシベンゾフラン−4−イル)ピペリジン−1−イル)酢酸 塩酸塩], at least 50%.
As for `COc1ccc(C2(C#N)CCN(CC(=O)O)CC2)c2cc(C3CC3C)oc12` (centres unmarked) [化合物84, 2−(4−シアノ−4−(7−メトキシ−2−(2−メチルシクロプロピル)ベンゾフラン−4−イル)ピペリジン−1−イル)酢酸 塩酸塩], the inhibition at 1 µM was at least 50%.
Consider `COc1ccc(C2(C#N)CCN(CC(=O)O)CC2)c2cc(C(C)C)oc12` [化合物77, 2−(4−シアノ−4−(2−イソプロピル−7−メトキシベンゾフラン−4−イル)ピペリジン−1−イル)酢酸 塩酸塩], for which the inhibition at 1 µM was at least 50%.
Regarding `COc1ccc(C2(C#N)CCN(CC(=O)O)CC2)c2cc(CC(C)(C)C)oc12` [化合物80, 2−(4−(7−メトキシ−2−ネオペンチルベンゾフラン−4−イル)−4−シアノピペリジン−1−イル)酢酸 塩酸塩], the inhibition at 1 µM is at least 50%.
Consider `COc1ccc(C2(C#N)CCN(CC(=O)O)CC2)c2cc(C(C)(C)C)oc12` [化合物78, 2−(4−(2−tert−ブチル−7−メトキシベンゾフラン−4−イル)−4−シアノピペリジン−1−イル)酢酸 塩酸塩], for which the inhibition at 1 µM was at least 50%.
Turning to `N#CC1(c2ccc(OC(F)F)c3oc(C4CC4)cc23)CCN(CC(=O)O)CC1` [化合物89, 2−(4−シアノ−4−(2−シクロプロピル−7−ジフルオロメトキシベンゾフラン−4−イル)ピペリジン−1−イル)酢酸 塩酸塩], the inhibition at 1 µM was at least 50%.
For `COc1ccc(C2(C#N)CCN(CC(=O)O)CC2)c2cc(C3CCC3)oc12` [化合物82, 2−(4−シアノ−4−(2−シクロブチル−7−メトキシベンゾフラン−4−イル)ピペリジン−1−イル)酢酸 塩酸塩], the inhibition at 1 µM is at least 50%.
`COc1ccc(C2(C#N)CCN(CC(=O)O)CC2)c2cc(C3(C)CC3)oc12` [化合物87, 2−(4−シアノ−4−(7−メトキシ−2−(1−メチルシクロプロピル)ベンゾフラン−4−イル)ピペリジン−1−イル)酢酸 塩酸塩]: the inhibition at 1 µM is at least 50%.
The same measure, in the same setting: for `COc1ccc(C2(C#N)CCN(CC(=O)O)CC2)c2cc(C3(c4ccccc4)CC3)oc12` [化合物88, 2−(4−シアノ−4−(7−メトキシ−2−(1−フェニルシクロプロピル)ベンゾフラン−4−イル)ピペリジン−1−イル)酢酸 塩酸塩] the value was at least 50%.

The values above are taken from JP2005255641A, “ベンゾフラン誘導体” (Kyowa Hakko Kogyo Co Ltd, priority 2004, dated 2005).
